Test results reported in patent US20100324132A1, “METHODS AND COMPOSITIONS FOR PROMOTING WOUND HEALING” (priority 2005, published 2010).

Experiments:
Enterococcus faecalis [1] = assay: Antibiotic resistance profile, disc diffusion; also: key: R = resistant; I = intermediate; S = sensitive; format: cell-based; conditions: E. faecalis isolated from burn patients
Staphylococcus aureus = assay: Antibiotic resistance profile, disc diffusion; also: key: R = resistant; I = intermediate; S = sensitive; format: cell-based; conditions: S. aureus isolated from burn patients
Pseudomonas aeruginosa [2] = assay: Antibiotic resistance profile, disc diffusion; also: key: R = resistant; I = intermediate; S = sensitive; format: cell-based; conditions: P. aeruginosa isolated from burn patients
[3] = system: surface ulcers with multiple resistant pathogenic species; assay: Bath treatment of ulcerated Koi; format: in vivo, Koi (Cyprinus carpio); conditions: antibiotics injected directly into the fish before the bath treatment
Experimental: An immersion treatment of the infected animals of 5 to 10 minutes on alternate days over a six day period promoted healing of most ulcers.
All of the treated fish had previously been given injections of Azactam, Baytril, and Amikacin. […] Among the species of bacteria found in the ulcers of the fish were representatives of the genera Aeromonas, Proteus, Klebsiella, Staphylococcus, Streptococcus, Enterobacter and Flavobacterium.
All fish were housed in a communal “hospital tank” before treatment and moved to an isolation tank after each treatment. The temperature of the bath was adjusted to that of the hospital tank temperature, 24 C, and adequate aeration was supplied to the treatment tank. Eight of the fish had external ulcers of various dimensions. Two of the fish were dropsied.

Aeromonas caviae = assay: MIC and FIC of EDTA and neomycin, Aeromonas isolated from ulcerated fish; format: cell-based; conditions: A. caviae
Experimental: (§1) This example describes a method for determining the FIC values set forth in Example 4. […] Agents and Chem. pp. 210-217 (1967); and Sparks et al., Vet. Res. Comm. 18:241-249 (1994). Each of the foregoing publications are incorporated herein by reference. […] Then 0.05 ml of an 18-hour old culture of a test organism, containing […] colony-forming units (CFU) ml, were added to each well. Controls for the culture and media were included in each plate. Plates were covered and incubated at 37° C. for 18-24 hours. A numerical score or Fractional Inhibitory Concentration (FIC) index was determined. The FIC index is equal to the sum of the values of FIC for the individual drugs: An FIC index greater than 1.0 indicated an antagonistic interaction, an FIC index of 1.0 indicated addition, and an FIC index of less than or equal to 0.5 indicated synergism between the two test agents.

Aeromonas sobria = assay: as above; format: cell-based; conditions: A. sobria
Experimental: as §1

Pseudomonas aeruginosa [4] = assay: MIC/MBC and checkerboard of EDTA-Tris and neomycin; format: cell-based; conditions: in 50 mM Tris
Experimental: (§2) This example describes a method for determining the FIC values set forth in Example 4. […] Agents and Chem. pp. 210-217 (1967); and Sparks et al., Vet. Res. Comm. 18:241-249 (1994). Each of the foregoing publications are incorporated herein by reference.
(§3) Then 0.05 ml of an 18-hour old culture of a test organism, containing […] colony-forming units (CFU) ml, were added to each well. Controls for the culture and media were included in each plate. Plates were covered and incubated at 37° C. for 18-24 hours.
(§4) To generate isobolograms, FICs of the two test solutions were plotted individually on the x-axis and y-axis to determine the effect of combining the two test solutions on bacterial growth. A line that curves away from the zero point and the coordinates indicated antagonism. […] Goodman and Gilman, pp. 1085-1086 (Macmillan Publishing Co., New York, 1985); Sabath, L. D., Antimicrob. Agents and Chem. pp. 210-217 (1967) and incorporated herein by reference in their entireties.
(§5) A numerical score or Fractional Inhibitory Concentration (FIC) index was determined. The FIC index is equal to the sum of the values of FIC for the individual drugs:
(§6) An FIC index greater than 1.0 indicated an antagonistic interaction, an FIC index of 1.0 indicated addition, and an FIC index of less than or equal to 0.5 indicated synergism between the two test agents.
(§7) The organisms of this study were isolated from human burn patients. They included strains of methicillin resistant Staphylococcus aureus, and vancomycin resistant strains of Pseudomonas aeruginosa and Enterococcus faecalis. The bacterial isolates were propagated in or on Brain Heart Infusion broth (BHI), Mueller-Hinton Broth (MHB), blood agar (BA), Mueller-Hinton agar (MBA), enterococcus agar (EA), or 2× nutrient agar (2× NA).
(§8) 307 (pub: Am. Soc. Microbiol. Williams and Wilkins, Baltimore 1970), incorporated herein by reference in its entirety.

Enterococcus faecalis [5] = assay: MIC/MBC and checkerboard of EDTA-Tris and neomycin; format: cell-based; conditions: in 50 mM Tris
Experimental: as §2, §3, §4, §5, §6, §7, §8

SMILES | Antibiotic resistance profile (Enterococcus faecalis [1]) | Antibiotic resistance profile (Staphylococcus aureus) | Antibiotic resistance profile (Pseudomonas aeruginosa [2]) | Healing of ulcers [3] | further results
CC1(C)S[C@@H]2[C@H](NC(=O)[C@H](N)c3ccccc3)C(=O)N2[C@H]1C(=O)O [Am, ampicillin] | S | R^B | R | – | –
NCC[C@H](O)C(=O)N[C@@H]1C[C@H](N)[C@@H](O[C@H]2O[C@H](CN)[C@@H](O)[C@H](O)[C@H]2O)[C@H](O)[C@H]1O[C@H]1O[C@H](CO)[C@@H](O)[C@H](N)[C@H]1O [Amikacin] | – | – | – | failed to heal visible ulcers | –
C[C@H]1[C@H](NC(=O)/C(=N\OC(C)(C)C(=O)O)c2csc(N)n2)C(=O)N1S(=O)(=O)O [Azactam] | – | – | – | failed to heal visible ulcers | –
CCN1CCN(c2cc3c(cc2F)c(=O)c(C(=O)O)cn3C2CC2)CC1 [Baytril] | – | – | – | failed to heal visible ulcers | –
O=C(N[C@H](CO)[C@H](O)c1ccc([N+](=O)[O-])cc1)C(Cl)Cl [C, chloramphenicol] | R | I | R | – | –
CC[C@H]1OC(=O)[C@H](C)[C@@H](O[C@H]2C[C@@](C)(OC)[C@@H](O)[C@H](C)O2)[C@H](C)[C@@H](O[C@@H]2O[C@H](C)C[C@H](N(C)C)[C@H]2O)[C@](C)(O)C[C@@H](C)C(=O)[C@H](C)[C@@H](O)[C@]1(C)O [E, erythromycin] | R | R | R | – | –
O=C(O)CN(CCN(CC(=O)O)CC(=O)O)CC(=O)O [EDTA, ethylenediaminetetraacetate] | – | – | – | – | MIC, EDTA in 50 mM Tris alone (Aeromonas caviae): <0.49; MIC, EDTA in 50 mM Tris alone (Aeromonas sobria): 15.6; MBC, individually administered (Pseudomonas aeruginosa [4]): 250 mM; MBC, individually administered (Enterococcus faecalis [5]): 250 mM
Cc1noc(NS(=O)(=O)c2ccc(N)cc2)c1C [G, sulfisoxazole] | R | S | R | – | –
